# From patent US20140162879A1, “SYNERGISTIC WEED CONTROL FROM APPLICATIONS OF AMINOCYCLOPYRACHLOR AND 2,4 DICHLOROPHENOXYACETIC ACID (2,4-D)” (Dow AgroSciences LLC, priority 2012, published 2014)
# Structures can show the parent of a compound that is named as a salt.
# How the values were obtained:
# [1] = tested on: Melochia parviflora (MEOPA); assay: Field trial, post-emergence foliar application, weed control rating; assay type: in vivo; conditions: 58-62 days
# Procedure: (§1) As described in the Herbicide Handbook of the Weed Science Society of America, Ninth Edition, 2007, p. […] In some embodiments, the damage or injury to the undesired vegetation caused by the compositions and methods disclosed herein is evaluated using a scale from 0% to 100%, when compared with the untreated control vegetation, wherein 0% indicates no damage to the undesired vegetation and 100% indicates complete destruction of the undesired vegetation. […] 22 (1967)
# (§2) Field trials were conducted with applications made to established grassland with naturally occurring weed populations. The target plants were treated with postemergence foliar applications when they were at the beginning of flowering stage and 50 centimeters (cm) (19.7 inches (in)) tall for Senna obtusifolia plants and at the flowering stage and 70-90 cm (27.6-35.4 in) for Melochia parviflora plants. All treatments were applied using a randomized complete block trial design, with 4 replications per treatment.
# (§3) Treatments consisted of aminocyclopyrachlor in acid form and the dimethylamine salt of 2,4-D, each in water and applied alone or in combination. Spray solutions were prepared using an appropriate amount of dilution to form a 2.4 liter (L) aqueous spray solution with active ingredients in single and two way combinations. Formulated compounds were applied to the plant material with a backpack sprayer equipped with 8003 nozzles calibrated to deliver 42.8 gallons per acre (gal/acre) (400 liters per hectare (L/ha)) at a spray height of 18-20 inches (45-51 centimeters (cm)) above average plant canopy.
# (§4) The treated plants were Senna obtusifolia (CASOB, java bean), or Melochia parviflora (MEOPA). The treated plots and control plots were rated blind at various intervals after application. Ratings were based on a scale of 0-100%, as discussed above, wherein 0% indicates no damage to the undesired vegetation and 100% indicates complete destruction of the undesired vegetation
# (§5) Colby's equation was used to determine the herbicidal effects expected from the mixtures, as described above. The results were measured at 42 days or 58-62 days after the first application of the compositions. […] The herbicide tank mix combinations tested, application rates and ratios employed, plant species tested, and results are given below.
# [2] = tested on: Senna obtusifolia (CASOB, java bean); assay: as above; assay type: in vivo
# Procedure: as §1, §2, §3, §4, §5
Compound,Mean % weed control ([1]; aminocyclopyrachlor alone 35 g ae/ha),Mean % weed control ([1]; aminocyclopyrachlor alone 70 g ae/ha),Mean % weed control ([1]; aminocyclopyrachlor alone 140 g ae/ha),Mean % weed control ([1]; aminocyclopyrachlor alone 210 g ae/ha),"Mean % weed control ([2]; aminocyclopyrachlor alone 35 g ae/ha, 42 days after application)","Mean % weed control ([1]; dimethylamine salt of 2,4-D alone 1120 g ae/ha)","Mean % weed control ([2]; dimethylamine salt of 2,4-D alone 1120 g ae/ha, 42 days)"
"Nc1nc(C2CC2)nc(C(=O)O)c1Cl [Aminocyclopyrachlor, 6-amino-5-chloro-2-cyclopropylpyrimidine-4-carboxylic acid]",6.8%,10.0%,52.1%,81.8%,72.0%,,
"O=C(O)COc1ccc(Cl)cc1Cl [Dimethylamine salt of 2,4-D, 2,4-dichlorophenoxyacetic acid]",,,,,,24.4%,64.3%
